From patent US9533985B2, “Sulfonamide derivative and medicinal use thereof” (EA Pharma Co., Ltd., priority 2012, dated 2017) come the findings set out here.

SMILES strings stand for the structures. A value given as a limit tells only on which side of the number the result lay.

Sequence of α4β7 integrin (P13612 34-1032): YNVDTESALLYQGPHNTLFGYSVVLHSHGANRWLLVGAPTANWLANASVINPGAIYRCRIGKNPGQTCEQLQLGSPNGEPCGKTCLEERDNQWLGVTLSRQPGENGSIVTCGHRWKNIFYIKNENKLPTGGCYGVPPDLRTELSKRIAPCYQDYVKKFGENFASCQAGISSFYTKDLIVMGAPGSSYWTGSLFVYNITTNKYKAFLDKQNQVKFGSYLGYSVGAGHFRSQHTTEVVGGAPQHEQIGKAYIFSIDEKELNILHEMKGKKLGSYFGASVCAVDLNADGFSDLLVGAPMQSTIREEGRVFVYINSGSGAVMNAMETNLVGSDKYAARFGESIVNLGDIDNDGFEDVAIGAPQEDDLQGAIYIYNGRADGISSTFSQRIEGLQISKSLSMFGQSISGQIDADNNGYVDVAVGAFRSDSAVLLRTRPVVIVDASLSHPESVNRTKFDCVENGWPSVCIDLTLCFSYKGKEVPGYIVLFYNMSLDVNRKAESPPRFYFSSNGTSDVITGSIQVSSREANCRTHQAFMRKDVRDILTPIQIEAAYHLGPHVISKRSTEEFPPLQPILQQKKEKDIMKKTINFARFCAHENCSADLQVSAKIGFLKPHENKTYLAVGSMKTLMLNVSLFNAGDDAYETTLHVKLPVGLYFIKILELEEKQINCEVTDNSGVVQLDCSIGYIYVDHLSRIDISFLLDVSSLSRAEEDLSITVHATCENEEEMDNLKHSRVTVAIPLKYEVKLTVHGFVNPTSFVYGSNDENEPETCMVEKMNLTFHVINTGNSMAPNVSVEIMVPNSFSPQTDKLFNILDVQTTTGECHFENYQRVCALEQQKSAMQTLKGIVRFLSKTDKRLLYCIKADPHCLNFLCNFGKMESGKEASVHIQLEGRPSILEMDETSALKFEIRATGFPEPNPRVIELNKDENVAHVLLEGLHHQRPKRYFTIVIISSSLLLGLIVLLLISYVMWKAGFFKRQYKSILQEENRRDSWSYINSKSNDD
Sequence of α4β7 integrin (P26010 20-798): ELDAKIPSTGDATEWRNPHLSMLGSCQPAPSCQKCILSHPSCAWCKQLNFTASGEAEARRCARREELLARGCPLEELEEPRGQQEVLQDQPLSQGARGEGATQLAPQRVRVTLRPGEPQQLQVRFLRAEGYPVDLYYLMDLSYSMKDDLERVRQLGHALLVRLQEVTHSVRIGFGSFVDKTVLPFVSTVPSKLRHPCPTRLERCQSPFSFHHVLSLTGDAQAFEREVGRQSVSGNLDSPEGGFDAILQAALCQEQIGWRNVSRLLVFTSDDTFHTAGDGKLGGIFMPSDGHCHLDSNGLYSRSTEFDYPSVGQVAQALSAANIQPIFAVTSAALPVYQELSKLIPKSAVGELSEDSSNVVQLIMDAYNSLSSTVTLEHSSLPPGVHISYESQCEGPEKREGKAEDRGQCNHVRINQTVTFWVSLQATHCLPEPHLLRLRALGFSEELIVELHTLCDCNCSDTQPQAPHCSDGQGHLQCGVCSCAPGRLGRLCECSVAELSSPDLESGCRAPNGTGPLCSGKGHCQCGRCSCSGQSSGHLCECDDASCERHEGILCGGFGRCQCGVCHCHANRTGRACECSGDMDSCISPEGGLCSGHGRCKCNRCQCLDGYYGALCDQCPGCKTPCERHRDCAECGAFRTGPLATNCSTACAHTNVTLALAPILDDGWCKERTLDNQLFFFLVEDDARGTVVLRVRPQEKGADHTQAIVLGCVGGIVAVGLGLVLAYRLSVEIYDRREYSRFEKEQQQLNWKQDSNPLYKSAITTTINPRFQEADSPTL

For this test, the target named is α4β7 integrin (Homo sapiens (Human), UniProt P13612+P26010). As to the kind of experiment: MAdCAM-1/α4β7 integrin binding inhibitory activity evaluation test in the presence of serum (2). As to conditions: RPMI-8866 cells binding to mouse MAdCAM-1/Fc, same manner as Test (3), read-out: α4β7 Rank of activity with serum added. It is filed as cell-based. An outline of the steps:
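Adhesion of human RPMI-8866 B cells (α4β7-expressing) to plate-bound recombinant mouse MAdCAM-1/Fc in DMEM binding buffer with 4 mM MnCl2 and 50% final human serum, 15–60 min at 30 °C. Bound cells quantified by LDH activity (A490) after lysis; IC50 relative to no-compound binding, duplicate.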
As to `Cn1c(=O)n(-c2ccc(C[C@H](NC(=O)c3cc(F)c(NS(=O)(=O)c4ccc(-n5cncn5)cc4)cc3F)C(=O)O)cn2)c(=O)c2ccncc21` [Example 221, N-[2,5-Difluoro-4-({[4-(1H-1,2,4-triazol-1-yl)phenyl]sulfonyl}amino)benzoyl]-3-[6-(1-methyl-2,4-dioxo-1,4-dihydropyrido[3,4-d]pyrimidin-3(2H)-yl)pyridin-3-yl]-L-alanine], the IC50 was in the range of 10 to 50 nM. Then `Cn1c(=O)n(-c2ccc(C[C@H](NC(=O)c3cc(F)c(NS(=O)(=O)c4ccc(-c5ncccn5)cn4)cc3F)C(=O)O)nc2)c(=O)c2ccncc21` [Example 222, N-(2,5-Difluoro-4-{[(5-pyrimidin-2-ylpyridin-2-yl)sulfonyl]amino}benzoyl)-3-[5-(1-methyl-2,4-dioxo-1,4-dihydropyrido[3,4-d]pyrimidin-3(2H)-yl)pyridin-2-yl]-L-alanine], with 50 to 200 nM; and `Cn1c(=O)n(-c2ccc(C[C@H](NC(=O)c3cc(F)c(NS(=O)(=O)c4ccc(C(=O)C5CC5)cc4)cc3F)C(=O)O)nc2)c(=O)c2ccncc21` [Example 223, N-[4-({[4-(Cyclopropylcarbonyl)phenyl]sulfonyl}amino)-2,5-difluorobenzoyl]-3-[5-(1-methyl-2,4-dioxo-1,4-dihydropyrido[3,4-d]pyrimidin-3(2H)-yl)pyridin-2-yl]-L-alanine], with 50 to 200 nM; and `Cn1c(=O)n(-c2ccc(C[C@H](NC(=O)c3cc(F)c(NS(=O)(=O)c4ccc(-n5cncn5)cc4)cc3F)C(=O)O)nc2)c(=O)c2ccncc21` [Example 224, N-[2,5-Difluoro-4-({[4-(1H-1,2,4-triazol-1-yl)phenyl]sulfonyl}amino)benzoyl]-3-[5-(1-methyl-2,4-dioxo-1,4-dihydropyrido[3,4-d]pyrimidin-3(2H)-yl)pyridin-2-yl]-L-alanine], with 10 to 50 nM. Turning to `Cn1c(=O)n(-c2ccc(C[C@H](NC(=O)c3cc(F)c(NS(=O)(=O)c4ccc(-n5cncn5)cc4)cc3F)C(=O)O)cc2)c(=O)c2ccncc21` [Example 225, N-[2,5-Difluoro-4-({[4-(1H-1,2,4-triazol-1-yl)phenyl]sulfonyl}amino)benzoyl]-4-(1-methyl-2,4-dioxo-1,4-dihydropyrido[3,4-d]pyrimidin-3(2H)-yl)-L-phenylalanine], the IC50 lay within 10 to 50 nM. Then `Cn1c(=O)n(-c2ccc(C[C@H](NC(=O)c3cc(F)c(NS(=O)(=O)c4ccc(-n5ccnn5)cc4)cc3F)C(=O)O)nc2)c(=O)c2ccncc21` [Example 226, N-[2,5-Difluoro-4-({[4-(1H-1,2,3-triazol-1-yl)phenyl]sulfonyl}amino)benzoyl]-3-[5-(1-methyl-2,4-dioxo-1,4-dihydropyrido[3,4-d]pyrimidin-3(2H)-yl)pyridin-2-yl]-L-alanine], with 10 to 50 nM; and `Cc1cc(-c2ccc(S(=O)(=O)Nc3cc(F)c(C(=O)N[C@@H](Cc4ccc(-n5c(=O)c6ccncc6n(C)c5=O)cn4)C(=O)O)cc3F)nc2)cc(C)n1` [Example 227, N-(4-{[(2′,6′-Dimethyl-3,4′-bipyridin-6-yl)sulfonyl]amino}-2,5-difluorobenzoyl)-3-[5-(1-methyl-2,4-dioxo-1,4-dihydropyrido[3,4-d]pyrimidin-3(2H)-yl)pyridin-2-yl]-L-alanine], with 50 to 200 nM; and `COc1ncc(-c2ccc(S(=O)(=O)Nc3cc(F)c(C(=O)N[C@@H](Cc4ccc(-n5c(=O)c6ccncc6n(C)c5=O)cn4)C(=O)O)cc3F)cc2)cn1` [Example 228, N-[2,5-Difluoro-4-({[4-(2-methoxypyrimidin-5-yl)phenyl]sulfonyl}amino)benzoyl]-3-[5-(1-methyl-2,4-dioxo-1,4-dihydropyrido[3,4-d]pyrimidin-3(2H)-yl)pyridin-2-yl]-L-alanine], with 50 to 200 nM. The same measure for `CCc1ncc(-c2ccc(S(=O)(=O)Nc3cc(F)c(C(=O)N[C@@H](Cc4ccc(-n5c(=O)c6ccncc6n(C)c5=O)cn4)C(=O)O)cc3F)cc2)cn1` [Example 229, N-[4-({[4-(2-Ethylpyrimidin-5-yl)phenyl]sulfonyl}amino)-2,5-difluorobenzoyl]-3-[5-(1-methyl-2,4-dioxo-1,4-dihydropyrido[3,4-d]pyrimidin-3(2H)-yl)pyridin-2-yl]-L-alanine]: 50 to 200 nM; for `Cn1c(=O)n(-c2ccc(C[C@H](NC(=O)c3cc(F)c(NS(=O)(=O)c4ccc(-c5ncccn5)cn4)cc3F)C(=O)O)nc2)c(=O)c2ncccc21` [Example 230, N-(2,5-Difluoro-4-{[(5-pyrimidin-2-ylpyridin-2-yl)sulfonyl]amino}benzoyl)-3-[5-(1-methyl-2,4-dioxo-1,4-dihydropyrido[3,2-d]pyrimidin-3(2H)-yl)pyridin-2-yl]-L-alanine]: 50 to 200 nM; for `CCOc1cc(-c2ncccn2)ccc1S(=O)(=O)Nc1cc(F)c(C(=O)N[C@@H](Cc2ccc(-n3c(=O)c4ccncc4n(C)c3=O)cn2)C(=O)O)c(F)c1` [Example 231, N-(4-{[(2-Ethoxy-4-pyrimidin-2-ylphenyl)sulfonyl]amino}-2,6-difluorobenzoyl)-3-[5-(1-methyl-2,4-dioxo-1,4-dihydropyrido[3,4-d]pyrimidin-3(2H)-yl)pyridin-2-yl]-L-alanine]: at most 10 nM. With `Cn1c(=O)n(-c2ccc(C[C@H](NC(=O)c3cc(F)c(NS(=O)(=O)c4ccc(-c5cnc(N6CCC6)nc5)cc4)cc3F)C(=O)O)nc2)c(=O)c2ccncc21` [Example 232, N-[4-({[4-(2-Azetidin-1-ylpyrimidin-5-yl)phenyl]sulfonyl}amino)-2,5-difluorobenzoyl]-3-[5-(1-methyl-2,4-dioxo-1,4-dihydropyrido[3,4-d]pyrimidin-3(2H)-yl)pyridin-2-yl]-L-alanine], the IC50 lay in the range of 50 to 200 nM.

On to `Cn1c(=O)n(-c2ccc(C[C@H](NC(=O)c3cc(F)c(NS(=O)(=O)c4ccc5c(c4)C(=O)OC5)cc3F)C(=O)O)nc2)c(=O)c2ccncc21` [Example 233, N-(2,5-Difluoro-4-{[(3-oxo-1,3-dihydro-2-benzofuran-5-yl)sulfonyl]amino}benzoyl)-3-[5-(1-methyl-2,4-dioxo-1,4-dihydropyrido[3,4-d]pyrimidin-3(2H)-yl)pyridin-2-yl]-L-alanine], for which the IC50 fell in the range of 50 to 200 nM.

Take `Cc1cn(-c2ccc(S(=O)(=O)Nc3cc(F)c(C(=O)N[C@@H](Cc4ccc(-n5c(=O)c6ccncc6n(C)c5=O)cn4)C(=O)O)cc3F)cc2)nn1` [Example 234, N-[2,5-Difluoro-4-({[4-(4-methyl-1H-1,2,3-triazol-1-yl)phenyl]sulfonyl}amino)benzoyl]-3-[5-(1-methyl-2,4-dioxo-1,4-dihydropyrido[3,4-d]pyrimidin-3(2H)-yl)pyridin-2-yl]-L-alanine]: the IC50 was 10 to 50 nM. Then `Cn1c(=O)n(-c2ccc(C[C@H](NC(=O)c3cc(F)c(NS(=O)(=O)c4ccc(-c5cc(F)cc(F)c5)cc4)cc3F)C(=O)O)nc2)c(=O)c2ccncc21` [Example 235, N-(4-{[(3′,5′-Difluorobiphenyl-4-yl)sulfonyl]amino}-2,5-difluorobenzoyl)-3-[5-(1-methyl-2,4-dioxo-1,4-dihydropyrido[3,4-d]pyrimidin-3(2H)-yl)pyridin-2-yl]-L-alanine], with over 200 nM.

As for `CCc1ncc(-c2ccc(S(=O)(=O)Nc3cc(F)c(C(=O)N[C@@H](Cc4ccc(-n5c(=O)c6ccncc6n(C)c5=O)cn4)C(=O)O)cc3F)nc2)cn1` [Example 236, N-[4-({[5-(2-Ethylpyrimidin-5-yl)pyridin-2-yl]sulfonyl}amino)-2,5-difluorobenzoyl]-3-[5-(1-methyl-2,4-dioxo-1,4-dihydropyrido[3,4-d]pyrimidin-3(2H)-yl)pyridin-2-yl]-L-alanine], the IC50 was in the range of 10 to 50 nM. On to `CCc1ncc(-c2ccc(S(=O)(=O)Nc3cc(F)c(C(=O)N[C@@H](Cc4ccc(-n5c(=O)c6ccncc6n(C)c5=O)cc4)C(=O)O)cc3F)cc2)cn1` [Example 237, N-[4-({[4-(2-Ethylpyrimidin-5-yl)phenyl]sulfonyl}amino)-2,5-difluorobenzoyl]-4-(1-methyl-2,4-dioxo-1,4-dihydropyrido[3,4-d]pyrimidin-3(2H)-yl)-L-phenylalanine], for which the IC50 lay within 10 to 50 nM.

With `CCc1ncc(-c2ccc(S(=O)(=O)Nc3cc(F)c(C(=O)N[C@@H](Cc4ccc(-n5c(=O)c6ccncc6n(C)c5=O)nc4)C(=O)O)cc3F)cc2)cn1` [Example 238, N-[4-({[4-(2-Ethylpyrimidin-5-yl)phenyl]sulfonyl}amino)-2,5-difluorobenzoyl]-3-[6-(1-methyl-2,4-dioxo-1,4-dihydropyrido[3,4-d]pyrimidin-3(2H)-yl)pyridin-3-yl]-L-alanine], the IC50 was at most 10 nM.
